From patent US5877210A, “Phosphotyrosine phosphatase inhibitors or phosphotyrosine kinase activators for controlling cellular proliferation” (priority 1995, dated 1999)
Read-outs that look alike come from different tables or passages of the source.

Assays:
PTP1B = target: T1, PTP1B (Homo sapiens, UniProt P18031); assay: Phosphotyrosine phosphatase PTP1B inhibition; assay type: biochemical
T1 construct: purchased Upstate Biotechnology, Lake Placid, N.Y
T1 sequence (P18031 1-435): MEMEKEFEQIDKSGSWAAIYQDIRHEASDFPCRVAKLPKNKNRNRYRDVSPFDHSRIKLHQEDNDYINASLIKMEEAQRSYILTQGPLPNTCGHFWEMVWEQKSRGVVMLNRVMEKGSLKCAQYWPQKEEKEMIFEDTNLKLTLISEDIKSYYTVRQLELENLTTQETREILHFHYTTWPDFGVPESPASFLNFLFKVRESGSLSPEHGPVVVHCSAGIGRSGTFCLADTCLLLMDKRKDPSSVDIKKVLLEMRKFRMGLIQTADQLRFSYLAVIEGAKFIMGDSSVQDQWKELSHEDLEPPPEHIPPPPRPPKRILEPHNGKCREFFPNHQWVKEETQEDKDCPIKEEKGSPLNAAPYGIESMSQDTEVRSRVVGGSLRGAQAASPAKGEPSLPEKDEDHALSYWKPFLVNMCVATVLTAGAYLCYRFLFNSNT

[1] = tested on: peripheral blood lymphocytes (PBL); assay: PBL growth driven by antibody/cytokine stimulation; assay type: cell-based, human
ZAP-70 = ZAP-70 tyrosine phosphorylation in T cells; assay type: cell-based; details: 16 h BMLOV, anti-CD3 stimulation
Method: In the experiments shown in FIG. 25, human PHA-induced T cell blasts were treated overnight with the indicated concentrations of BMLOV. In Panel A, the baseline level of intracellular free Ca^2+ ([Ca^2+ ]i) was established for 1 min, and then the cells were treated with biotinylated anti-CD3 mAb (G19-4). After 5 min avidin was added (gap in the trace) to cross-link the antibody. In Panel B, assays were performed as in Panel A, but in the presence of 5 mM EGTA. […] In the experiments shown in FIG. 26, cells were treated 16 h with BMLOV and then stimulated with anti-CD3 mAb G19-4 for 5 min. Cells were then washed and resuspended in fresh media at equal concentrations of BMLOV at 37° C. Cells were then harvested and lysed at times following the initiation of CD3 stimulation as indicated. Antibody binding in immunoblots was detected by ECL.

[2] = tested on: antibody-producing B cells; assay: Class-switching: Ig production by anti-CD40 + IL-4 treated B cells; assay type: cell-based, human
Method: The effects of BMLOV were assayed on class-switching in antibody-producing B cells. Human B cells producing antibody were treated with anti-CD40 antibody plus IL-4, which increased production of IgE over 10-fold (Table 7). […] In contrast, the production of IgG1 and IgG4 was much less affected, particularly at a dose of 5.6 μM BMLOV. This selective effect is important because the IgG antibody production is an important response to infectious disease. It would be of value to suppress IgE production for the treatment of allergies while maintaining IgG production, particularly in conditions in which an allergy coexists with an infectious disease. A common example is the exacerbation of allergic rhinitis (hay fever) as the result of a respiratory infection.

[3] = tested on: L1210 murine T cell leukemia cells; assay: Apoptosis: DNA fragmentation on agarose gel; assay type: cell-based; details: pV(phen), FIG. 18
Method: For these experiments, cell samples (2×10^6 cells) were centrifuged at 200× g, the media removed by aspiration and the cell pellets stored at -70° C. until processing. Cell pellets were resuspended in 300 μl digestion buffer (100 mM NaCl, 10 mM Tris-HCl, pH 8.0, 25 mM EDTA, 0.5% SDS, 0.1 mg/ml protease K) and incubated for 12 hours at 50° C. DNase-free ribonuclease (5 μg) in 200 μl TE buffer (10 mM Tris-HCl, pH 7.5, 1 mM EDTA) was added to each sample followed by incubation for 2 hours at 37° C. DNA was then extracted once with phenol:chloroform, once with chloroform and then precipitated with 0.5 volumes of ammonium acetate and 2 volumes of ethanol at -70° C. for 12 hours. The precipitated DNA was resuspended in 200 μl TE buffer and quantitated by absorbance at 260 nanometers. The DNA (15 μg) was applied to a 1.3% agarose gel in TBE buffer (89 mM Tris base, 89 mM boric acid, 2 mM EDTA) resolved at 20 mA constant current and the DNA was visualized by staining with ethidium bromide. Fragmented DNA due to apoptosis appeared as a ladder of bands on the gel.
L1210 murine T cell leukemia cells were treated with the indicated concentrations of pV(phen) for the indicated times and the DNA was examined by gel electrophoresis as in Example 3.

[4] = Anti-CD40 + IL-4 + 0.002 μM BMLOV
[5] = Anti-CD40 + IL-4 + 0.008 μM BMLOV
[6] = Anti-CD40 + IL-4 + 0.02 μM BMLOV
[7] = Anti-CD40 + IL-4 + 0.07 μM BMLOV
[8] = Anti-CD40 + IL-4 + 0.2 μM BMLOV
[9] = Anti-CD40 + IL-4 + 0.6 μM BMLOV
[10] = Anti-CD40 + IL-4 + 1.9 μM BMLOV
[11] = Anti-CD40 + IL-4 + 5.6 μM BMLOV

Compound: Cc1occc(=O)c1[O-].Cc1occc(=O)c1[O-].[O]=[V+2] [BMLOV, Bis(maltolato)oxovanadium (IV)]
- IC50 (PTP1B): ~25 nM
- IC50 (PTP1B; Table 1, phosphorylated myelin basic protein substrate): 26 nM
- IC50 (PTP1B; Table 8): 26 nM
- PBL growth driven by anti-CD28 antibody plus IL-2 ([1]; 1 μM BMLOV): markedly inhibited
- PBL growth driven by anti-CD3 antibody plus anti-CD28 antibody ([1]; 10 μM BMLOV): strongly inhibited
- tyrosine phosphorylation of ZAP-70 or the associated zeta chain (ZAP-70): little effect was observed
- increased production of IgE, in words ([2]; 5.6 or 17 μM BMLOV): markedly inhibited
- [Ig] IgE [2, 4]: 3.9 ng/mL
- [Ig] IgG1 [2, 4]: 450 ng/mL
- [Ig] IgG4 [2, 4]: 1.7 ng/mL
- [Ig] IgM [2, 4]: 20.4 ng/mL
- [Ig] IgE [2, 5]: 2.6 ng/mL
- [Ig] IgG1 [2, 5]: 450 ng/mL
- [Ig] IgG4 [2, 5]: 1.1 ng/mL
- [Ig] IgM [2, 5]: 20.4 ng/mL
- [Ig] IgE [2, 6]: 4.5 ng/mL
- [Ig] IgG1 [2, 6]: 390 ng/mL
- [Ig] IgG4 [2, 6]: 1.3 ng/mL
- [Ig] IgM [2, 6]: 19.2 ng/mL
- [Ig] IgE [2, 7]: 5.1 ng/mL
- [Ig] IgG1 [2, 7]: 450 ng/mL
- [Ig] IgG4 [2, 7]: 2.7 ng/mL
- [Ig] IgM [2, 7]: 12.0 ng/mL
- [Ig] IgE [2, 8]: 7.5 ng/mL
- [Ig] IgG1 [2, 8]: 495 ng/mL
- [Ig] IgG4 [2, 8]: 1.2 ng/mL
- [Ig] IgM [2, 8]: 13.8 ng/mL
- [Ig] IgE [2, 9]: 5.7 ng/mL
- [Ig] IgG1 [2, 9]: 480 ng/mL
- [Ig] IgG4 [2, 9]: 1.3 ng/mL
- [Ig] IgM [2, 9]: 17.4 ng/mL
- [Ig] IgE [2, 10]: 3.0 ng/mL
- [Ig] IgG1 [2, 10]: 450 ng/mL
- [Ig] IgG4 [2, 10]: 2.7 ng/mL
- [Ig] IgM [2, 10]: 15.6 ng/mL
- [Ig] IgE [2, 11]: 1.2 ng/mL
- [Ig] IgG1 [2, 11]: 480 ng/mL
- [Ig] IgG4 [2, 11]: 1.8 ng/mL
- [Ig] IgM [2, 11]: 18.6 ng/mL
- [Ig] IgE ([2]; Anti-CD40 + IL-4 + 17 μM BMLOV): 0.8 ng/mL
- [Ig] IgG1 ([2]; Anti-CD40 + IL-4 + 17 μM BMLOV): 450 ng/mL
- [Ig] IgG4 ([2]; Anti-CD40 + IL-4 + 17 μM BMLOV): 0.8 ng/mL
- [Ig] IgM ([2]; Anti-CD40 + IL-4 + 17 μM BMLOV): 18.0 ng/mL
- [Ig] IgE ([2]; Anti-CD40 + IL-4 + 50 μM BMLOV): 0.2 ng/mL
- [Ig] IgG1 ([2]; Anti-CD40 + IL-4 + 50 μM BMLOV): 60 ng/mL
- [Ig] IgG4 ([2]; Anti-CD40 + IL-4 + 50 μM BMLOV): 0.5 ng/mL
- [Ig] IgM ([2]; Anti-CD40 + IL-4 + 50 μM BMLOV): 5.1 ng/mL

Compound: [Na+].[O]=[V-]12([O][O]1)[O][O]2.c1cnc2c(c1)ccc1cccnc12 [pV(phen), sodium (1,10-phenanthroline) oxodiperoxovanadium (V)]
- induction of apoptosis (DNA fragmentation) [3]: fragmentation of DNA demonstrates apoptosis
